# Data taken from article PMC4503722, “Novel Phenotypic Outcomes Identified for a Public Collection of Approved Drugs from a Publicly Accessible Panel of Assays” (PLoS ONE, 2015).
# Where two headings read alike, the source gives them in different places.
# Tests used:
# SNU-C1 = test: cells; assay type: cell-based; settings: for Basal_Viability ATP SNU-C1 IC50/EC50: assay number 30, basal
# HCT116 = test: cells; assay type: cell-based; settings: for Basal_Viability ATP HCT116 IC50/EC50: assay number 25
# [1] = test system: nuclear β-catenin in C2C12 cells; test: cells; assay type: cell-based; settings: for WntCondMedia_bCatenin C2C12 IC50/EC50: assay number 5
# [2] = test system: ECFC/ADSC co-culture cell nuclei number
# hp70S6K1 (RPS6KB1) = biological target: T1, hp70S6K1 (RPS6KB1) (Homo sapiens, UniProt P23443); test: Cerep LANCE kinase assay hp70S6K1 (S1 assay 31); assay type: biochemical; settings: for hp70S6K1 LANCE IC50/EC50: assay number 31
# T1 construct: purchased Cerep (LANCE kinase assay platform, contract assay)
# [3] = test system: HCT116 cells treated with a GSK3β inhibitor; test: cells; assay type: cell-based; settings: for GSK3b inh pretreated_Viability ATP HCT116 IC50/EC50: assay number 26, GSK3b inhibitor pretreated
# hKDR = biological target: T2, hKDR (Homo sapiens, UniProt P35968); test: Cerep LANCE kinase assay hKDR (S1 assay 32); assay type: biochemical; settings: for hKDR LANCE IC50/EC50: assay number 32
# T2 construct: purchased Cerep (LANCE kinase assay platform, contract assay)
# [4] = test system: alkaline phosphatase (ALP) activity in C2C12 cells; assay type: cell-based; settings: for WntCondMedia_Alk Phos C2C12 IC50/EC50: assay number 6
# HT-29 = test: cells; assay type: cell-based; settings: for Basal_Viability ATP HT-29 IC50/EC50: assay number 28
# [5] = test system: endothelial tube formation in co-cultures of ECFCs and ADSCs treated with VEGF; test: cells; assay type: cell-based, human
# SW480 = test: cells; assay type: cell-based; settings: for Basal_Viability ATP SW480 IC50/EC50: assay number 24
# RKO = test: cells; assay type: cell-based; settings: for Basal_Viability ATP RKO IC50/EC50: assay number 29
# hFLT3 = biological target: T3, hFLT3 (Homo sapiens, UniProt P36888); test: Cerep LANCE kinase assay hFLT3 (S1 assay 35); assay type: biochemical; settings: for hFLT3 LANCE IC50/EC50: assay number 35
# T3 construct: purchased Cerep (LANCE kinase assay platform, contract assay)
# hGSK3b = biological target: T4, hGSK3b (Homo sapiens, UniProt P49841); test: Cerep LANCE kinase assay hGSK3b (S1 assay 34); assay type: biochemical; settings: for hGSK3b LANCE IC50/EC50: assay number 34
# T4 construct: purchased Cerep (LANCE kinase assay platform, contract assay)
# HeLa cells = test: cells; assay type: cell-based; settings: for Hela CellCycMod PI 2N IC50/EC50: assay number 14; for Hela CellCycMod PI S Phase IC50/EC50: assay number 15; for Hela CellCycMod PI 4N IC50/EC50: assay number 16; for Hela CellCycMod PI MI IC50/EC50: assay number 17; for Hela CellCycMod PI Cell Number IC50/EC50: assay number 18
# Colo320 = test: cells; assay type: cell-based; settings: for Basal_Viability ATP Colo 320 IC50/EC50: assay number 27, basal
# DLD-1 = test: cells; assay type: cell-based; settings: for Basal_Viability ATP DLD-1 IC50/EC50: assay number 23
# hJAK2 = biological target: T5, hJAK2 (Homo sapiens, UniProt O60674); test: Cerep LANCE kinase assay hJAK2 (S1 assay 33); assay type: biochemical; settings: for hJAK2 LANCE IC50/EC50: assay number 33
# T5 construct: purchased Cerep (LANCE kinase assay platform, contract assay)
# T5 sequence (O60674 whole entry): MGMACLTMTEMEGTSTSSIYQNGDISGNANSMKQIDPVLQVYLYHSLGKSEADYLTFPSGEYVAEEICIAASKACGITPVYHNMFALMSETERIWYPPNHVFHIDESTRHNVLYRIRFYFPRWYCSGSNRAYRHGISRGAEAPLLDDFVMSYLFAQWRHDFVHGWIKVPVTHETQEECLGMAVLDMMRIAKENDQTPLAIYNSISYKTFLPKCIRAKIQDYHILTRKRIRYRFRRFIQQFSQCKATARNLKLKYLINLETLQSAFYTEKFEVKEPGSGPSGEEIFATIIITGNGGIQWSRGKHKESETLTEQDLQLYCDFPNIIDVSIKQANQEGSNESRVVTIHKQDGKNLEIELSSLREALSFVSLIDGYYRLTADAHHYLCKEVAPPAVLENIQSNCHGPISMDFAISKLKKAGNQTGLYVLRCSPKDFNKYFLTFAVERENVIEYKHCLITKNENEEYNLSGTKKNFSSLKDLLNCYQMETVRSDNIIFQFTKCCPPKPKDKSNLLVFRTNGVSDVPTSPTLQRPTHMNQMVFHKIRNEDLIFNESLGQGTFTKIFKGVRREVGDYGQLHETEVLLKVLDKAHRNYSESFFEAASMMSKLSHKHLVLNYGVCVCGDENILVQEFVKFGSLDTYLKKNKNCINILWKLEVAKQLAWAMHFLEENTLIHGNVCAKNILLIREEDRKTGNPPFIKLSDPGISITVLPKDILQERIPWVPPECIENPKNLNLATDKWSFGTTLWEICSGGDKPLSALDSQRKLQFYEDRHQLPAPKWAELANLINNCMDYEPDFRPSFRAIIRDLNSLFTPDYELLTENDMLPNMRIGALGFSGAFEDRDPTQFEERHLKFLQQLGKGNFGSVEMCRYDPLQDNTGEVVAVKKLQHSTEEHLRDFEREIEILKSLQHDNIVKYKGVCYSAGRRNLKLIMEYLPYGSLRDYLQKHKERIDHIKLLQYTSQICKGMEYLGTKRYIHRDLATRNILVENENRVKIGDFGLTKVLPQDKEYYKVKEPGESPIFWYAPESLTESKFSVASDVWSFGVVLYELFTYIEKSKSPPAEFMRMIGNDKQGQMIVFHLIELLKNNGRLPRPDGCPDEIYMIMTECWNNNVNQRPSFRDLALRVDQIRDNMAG
# T1 sequence (P23443 whole entry): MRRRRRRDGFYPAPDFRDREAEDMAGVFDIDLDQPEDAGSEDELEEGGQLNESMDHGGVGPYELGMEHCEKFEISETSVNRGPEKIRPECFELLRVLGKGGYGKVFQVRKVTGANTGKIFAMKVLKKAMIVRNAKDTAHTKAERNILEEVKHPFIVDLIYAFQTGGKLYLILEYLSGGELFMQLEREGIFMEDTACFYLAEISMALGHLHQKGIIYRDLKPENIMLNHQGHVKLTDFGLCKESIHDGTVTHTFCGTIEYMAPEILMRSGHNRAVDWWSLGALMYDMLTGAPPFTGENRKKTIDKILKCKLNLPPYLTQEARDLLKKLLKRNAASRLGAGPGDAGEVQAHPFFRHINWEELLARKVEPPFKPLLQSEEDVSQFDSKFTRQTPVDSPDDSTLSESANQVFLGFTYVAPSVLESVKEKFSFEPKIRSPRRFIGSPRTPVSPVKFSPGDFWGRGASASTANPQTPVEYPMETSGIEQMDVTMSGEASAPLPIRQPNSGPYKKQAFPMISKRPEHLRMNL
# T4 sequence (P49841 whole entry): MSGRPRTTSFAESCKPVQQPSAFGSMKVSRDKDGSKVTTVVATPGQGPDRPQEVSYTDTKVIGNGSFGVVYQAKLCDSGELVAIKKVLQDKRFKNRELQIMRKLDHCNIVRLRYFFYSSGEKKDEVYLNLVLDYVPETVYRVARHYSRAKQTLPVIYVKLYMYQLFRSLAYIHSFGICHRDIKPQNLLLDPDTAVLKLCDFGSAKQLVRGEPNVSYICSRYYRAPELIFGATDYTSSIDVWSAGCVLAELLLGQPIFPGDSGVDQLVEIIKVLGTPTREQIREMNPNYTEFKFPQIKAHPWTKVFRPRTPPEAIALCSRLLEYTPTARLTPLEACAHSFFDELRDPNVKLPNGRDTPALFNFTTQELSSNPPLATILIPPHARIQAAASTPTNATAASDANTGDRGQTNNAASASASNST
# T3 sequence (P36888 27-993): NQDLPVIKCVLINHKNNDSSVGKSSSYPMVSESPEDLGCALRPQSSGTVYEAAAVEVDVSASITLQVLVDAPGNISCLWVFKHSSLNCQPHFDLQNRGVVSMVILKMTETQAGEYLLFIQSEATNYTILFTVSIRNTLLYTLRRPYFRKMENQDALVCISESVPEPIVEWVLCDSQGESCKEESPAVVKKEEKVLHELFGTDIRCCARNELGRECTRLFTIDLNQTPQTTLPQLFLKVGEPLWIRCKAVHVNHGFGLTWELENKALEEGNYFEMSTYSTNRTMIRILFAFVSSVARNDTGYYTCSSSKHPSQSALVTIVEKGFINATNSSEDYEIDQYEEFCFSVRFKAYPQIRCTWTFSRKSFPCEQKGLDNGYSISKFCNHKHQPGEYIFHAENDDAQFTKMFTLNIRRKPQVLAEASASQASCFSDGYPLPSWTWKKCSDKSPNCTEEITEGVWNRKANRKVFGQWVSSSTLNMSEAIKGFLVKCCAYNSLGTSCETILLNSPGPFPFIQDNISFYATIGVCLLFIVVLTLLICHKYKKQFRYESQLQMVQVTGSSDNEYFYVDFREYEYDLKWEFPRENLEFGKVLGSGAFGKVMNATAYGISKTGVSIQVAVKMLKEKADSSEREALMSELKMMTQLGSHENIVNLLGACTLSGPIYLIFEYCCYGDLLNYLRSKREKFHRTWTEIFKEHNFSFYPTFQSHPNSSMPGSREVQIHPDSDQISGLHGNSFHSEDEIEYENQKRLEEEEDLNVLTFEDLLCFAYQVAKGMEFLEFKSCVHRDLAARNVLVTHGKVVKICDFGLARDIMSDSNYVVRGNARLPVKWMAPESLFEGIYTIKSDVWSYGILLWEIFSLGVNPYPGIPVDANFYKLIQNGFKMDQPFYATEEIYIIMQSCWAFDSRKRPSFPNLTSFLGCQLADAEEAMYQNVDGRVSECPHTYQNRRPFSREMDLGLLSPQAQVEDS
# T2 sequence (P35968 20-1356): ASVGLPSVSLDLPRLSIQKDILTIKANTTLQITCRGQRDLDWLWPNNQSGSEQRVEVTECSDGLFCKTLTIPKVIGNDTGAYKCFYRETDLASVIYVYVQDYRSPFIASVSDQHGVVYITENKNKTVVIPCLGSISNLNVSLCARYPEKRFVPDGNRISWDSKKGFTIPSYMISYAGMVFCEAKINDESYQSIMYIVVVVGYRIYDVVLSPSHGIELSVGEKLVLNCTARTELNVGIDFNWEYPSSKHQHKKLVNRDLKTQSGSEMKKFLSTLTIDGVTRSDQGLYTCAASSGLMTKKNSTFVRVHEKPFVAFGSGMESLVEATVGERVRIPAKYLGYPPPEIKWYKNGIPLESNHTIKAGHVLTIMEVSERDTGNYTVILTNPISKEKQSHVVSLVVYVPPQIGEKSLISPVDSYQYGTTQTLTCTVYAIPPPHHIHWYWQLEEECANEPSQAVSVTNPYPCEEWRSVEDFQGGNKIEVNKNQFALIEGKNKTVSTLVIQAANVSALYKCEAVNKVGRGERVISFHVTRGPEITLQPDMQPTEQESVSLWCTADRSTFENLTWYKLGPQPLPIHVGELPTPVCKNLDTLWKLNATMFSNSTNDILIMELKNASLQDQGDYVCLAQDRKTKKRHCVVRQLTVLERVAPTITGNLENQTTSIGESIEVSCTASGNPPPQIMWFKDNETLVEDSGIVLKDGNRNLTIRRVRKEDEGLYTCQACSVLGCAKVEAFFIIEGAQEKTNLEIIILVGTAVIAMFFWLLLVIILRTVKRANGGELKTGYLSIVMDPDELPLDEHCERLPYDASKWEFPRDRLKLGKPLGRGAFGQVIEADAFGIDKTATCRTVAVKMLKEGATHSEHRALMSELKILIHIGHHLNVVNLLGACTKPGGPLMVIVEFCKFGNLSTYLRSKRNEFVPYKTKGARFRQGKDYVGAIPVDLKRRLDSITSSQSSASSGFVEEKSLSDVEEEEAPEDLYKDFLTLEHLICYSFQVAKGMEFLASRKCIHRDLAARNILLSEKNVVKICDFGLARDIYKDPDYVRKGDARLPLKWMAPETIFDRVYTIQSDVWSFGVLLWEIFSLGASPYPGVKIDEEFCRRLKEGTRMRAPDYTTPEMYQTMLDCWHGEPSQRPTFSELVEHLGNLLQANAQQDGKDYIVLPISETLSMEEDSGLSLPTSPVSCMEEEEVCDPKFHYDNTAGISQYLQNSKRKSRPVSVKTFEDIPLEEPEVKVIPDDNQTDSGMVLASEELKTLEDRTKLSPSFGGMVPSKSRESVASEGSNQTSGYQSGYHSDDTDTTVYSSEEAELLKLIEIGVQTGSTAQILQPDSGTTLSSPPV
structure (smiles),measurement,setting,value
O=C1c2c(O)ccc(O)c2C(=O)c2c(NCCNCCO)ccc(NCCNCCO)c21 [NCGC00015693-09],Basal_Viability ATP SNU-C1 IC50/EC50,SNU-C1,1718 nM
same,Basal_Viability ATP HCT116 IC50/EC50,HCT116; basal,1233.5 nM
same,WntCondMedia_bCatenin C2C12 IC50/EC50,[1]; concentration response,30.3 nM
same,VEGF_ADSC\ECFC Angio Hoechst NucArea IC50/EC50,[2],12.74 nM
same,hp70S6K1 LANCE IC50/EC50,hp70S6K1 (RPS6KB1),> 20000 nM
same,GSK3b inh pretreated_Viability ATP HCT116 IC50/EC50,[3],1 nM
same,hKDR LANCE IC50/EC50,hKDR,> 20000 nM
same,WntCondMedia_Alk Phos C2C12 IC50/EC50,[4]; concentration response,1509 nM
same,Basal_Viability ATP HT-29 IC50/EC50,HT-29; basal,7591 nM
same,VEGF_ADSC\ECFC Angio CD31 TubeArea IC50/EC50,[5],4.4 nM
same,Basal_Viability ATP SW480 IC50/EC50,SW480; basal,1830.6 nM
same,Basal_Viability ATP RKO IC50/EC50,RKO; basal,1029.1 nM
same,hFLT3 LANCE IC50/EC50,hFLT3,> 20000 nM
same,hGSK3b LANCE IC50/EC50,hGSK3b,> 20000 nM
same,Hela CellCycMod PI 2N IC50/EC50,HeLa cells; 2N,> 10000 nM
same,Hela CellCycMod PI S Phase IC50/EC50,HeLa cells,> 10000 nM
same,Hela CellCycMod PI 4N IC50/EC50,HeLa cells; 4N,> 10000 nM
same,Hela CellCycMod PI MI IC50/EC50,HeLa cells; MI,> 10000 nM
same,Hela CellCycMod PI Cell Number IC50/EC50,HeLa cells,3.1 nM
same,Basal_Viability ATP Colo 320 IC50/EC50,Colo320,7407.9 nM
same,Basal_Viability ATP DLD-1 IC50/EC50,DLD-1; basal,1603.8 nM
same,hJAK2 LANCE IC50/EC50,hJAK2,> 20000 nM
COc1cccc2c1C(=O)c1c(O)c3c(c(O)c1C2=O)C[C@@](O)(C(C)=O)C[C@@H]3O[C@H]1C[C@H](N)[C@H](O)[C@H](C)O1 [NCGC00024246-15],Basal_Viability ATP SNU-C1 IC50/EC50,SNU-C1,337.6 nM
same,Basal_Viability ATP HCT116 IC50/EC50,HCT116; basal,50.86 nM
same,WntCondMedia_bCatenin C2C12 IC50/EC50,[1]; concentration response,369.1 nM
same,hp70S6K1 LANCE IC50/EC50,hp70S6K1 (RPS6KB1),> 20000 nM
same,GSK3b inh pretreated_Viability ATP HCT116 IC50/EC50,[3],55.38 nM
same,hKDR LANCE IC50/EC50,hKDR,> 20000 nM
same,WntCondMedia_Alk Phos C2C12 IC50/EC50,[4]; concentration response,6.1 nM
same,Basal_Viability ATP HT-29 IC50/EC50,HT-29; basal,648.5 nM
same,Basal_Viability ATP SW480 IC50/EC50,SW480; basal,1466 nM
same,Basal_Viability ATP RKO IC50/EC50,RKO; basal,118.2 nM
same,hFLT3 LANCE IC50/EC50,hFLT3,> 20000 nM
same,hGSK3b LANCE IC50/EC50,hGSK3b,> 20000 nM
same,Hela CellCycMod PI 2N IC50/EC50,HeLa cells; 2N,10.16 nM
same,Hela CellCycMod PI S Phase IC50/EC50,HeLa cells,9604.6 nM
same,Hela CellCycMod PI 4N IC50/EC50,HeLa cells; 4N,46.45 nM
same,Hela CellCycMod PI MI IC50/EC50,HeLa cells; MI,373.8 nM
same,Hela CellCycMod PI Cell Number IC50/EC50,HeLa cells,8.05 nM
same,Basal_Viability ATP Colo 320 IC50/EC50,Colo320,9247.6 nM
same,Basal_Viability ATP DLD-1 IC50/EC50,DLD-1; basal,188 nM
same,hJAK2 LANCE IC50/EC50,hJAK2,> 20000 nM
COC(=O)Nc1nc2ccc([S+]([O-])c3ccccc3)cc2[nH]1 (stereo not drawn) [NCGC00095157-05],"IC50/EC50, Basal_Viability ATP HCT116 (assay number 25)",HCT116; basal,1 nM
same,"IC50/EC50, WntCondMedia_bCatenin C2C12 (assay number 5)",[1]; concentration response,468.3 nM
same,"IC50/EC50, VEGF_ADSC\ECFC Angio Hoechst NucArea (assay number 3)",[2],> 10000 nM
same,"IC50/EC50, hp70S6K1 LANCE (assay number 31)",hp70S6K1 (RPS6KB1),> 20000 nM
same,"IC50/EC50, GSK3b inh pretreated_Viability ATP HCT116 (assay number 26)",[3]; GSK3b inh pretreated,1 nM
same,"IC50/EC50, hKDR LANCE (assay number 32)",hKDR,> 20000 nM
same,"IC50/EC50, WntCondMedia_Alk Phos C2C12 (assay number 6)",[4]; concentration response,559.3 nM
same,"IC50/EC50, Basal_Viability ATP HT-29 (assay number 28)",HT-29; basal,> 20000 nM
same,"IC50/EC50, VEGF_ADSC\ECFC Angio CD31 TubeArea (assay number 2)",[5],288.4 nM
same,"IC50/EC50, Basal_Viability ATP SW480 (assay number 24)",SW480; basal,> 20000 nM
same,"IC50/EC50, Basal_Viability ATP RKO (assay number 29)",RKO; basal,1 nM
same,"IC50/EC50, hFLT3 LANCE (assay number 35)",hFLT3,> 20000 nM
same,"IC50/EC50, hGSK3b LANCE (assay number 34)",hGSK3b,> 20000 nM
same,"IC50/EC50, Hela CellCycMod PI 2N (assay number 14)",HeLa cells; 2N,326.3 nM
same,"IC50/EC50, Hela CellCycMod PI 4N (assay number 16)",HeLa cells; 4N,331 nM
same,"IC50/EC50, Hela CellCycMod PI Cell Number (assay number 18)",HeLa cells; Cell Number,257.5 nM
same,"IC50/EC50, Hela CellCycMod PI MI (assay number 17)",HeLa cells; MI,241.1 nM
same,"IC50/EC50, Basal_Viability ATP DLD-1 (assay number 23)",DLD-1; basal,> 20000 nM
same,"IC50/EC50, hJAK2 LANCE (assay number 33)",hJAK2,> 20000 nM
O=[N+]([O-])c1ccc(O)c2ncccc12 [NCGC00160664-03],"IC50/EC50, Basal_Viability ATP SNU-C1 (assay number 30)",SNU-C1,> 20000 nM
same,"IC50/EC50, Basal_Viability ATP HCT116 (assay number 25)",HCT116,920.6 nM
same,"IC50/EC50, WntCondMedia_bCatenin C2C12 (assay number 5)",[1],> 20000 nM
same,"IC50/EC50, hp70S6K1 LANCE (assay number 31)",hp70S6K1 (RPS6KB1),> 20000 nM
same,"IC50/EC50, GSK3b inh pretreated_Viability ATP HCT116 (assay number 26)",[3],375.1 nM
same,"IC50/EC50, hKDR LANCE (assay number 32)",hKDR,> 20000 nM
same,"IC50/EC50, WntCondMedia_Alk Phos C2C12 (assay number 6)",[4],6361.5 nM
same,"IC50/EC50, Basal_Viability ATP HT-29 (assay number 28)",HT-29,> 20000 nM
same,"IC50/EC50, Basal_Viability ATP SW480 (assay number 24)",SW480,604.6 nM
same,"IC50/EC50, Basal_Viability ATP RKO (assay number 29)",RKO,710.1 nM
same,"IC50/EC50, hFLT3 LANCE (assay number 35)",hFLT3,> 20000 nM
same,"IC50/EC50, hGSK3b LANCE (assay number 34)",hGSK3b,> 20000 nM
same,"IC50/EC50, Hela CellCycMod PI 2N (assay number 14)",HeLa cells,1702.8 nM
same,"IC50/EC50, Hela CellCycMod PI 4N (assay number 16)",HeLa cells,> 10000 nM
same,"IC50/EC50, Hela CellCycMod PI Cell Number (assay number 18)",HeLa cells,295.2 nM
same,"IC50/EC50, Hela CellCycMod PI MI (assay number 17)",HeLa cells,> 10000 nM
same,"IC50/EC50, Hela CellCycMod PI S Phase (assay number 15)",HeLa cells,> 10000 nM
same,"IC50/EC50, Basal_Viability ATP Colo 320 (assay number 27)",Colo320,683.7 nM
same,"IC50/EC50, Basal_Viability ATP DLD-1 (assay number 23)",DLD-1,1375 nM
same,"IC50/EC50, hJAK2 LANCE (assay number 33)",hJAK2,> 20000 nM
